{
  "source": "patent US8496967B2",
  "about": "“Oral formulations” (ARIAD Pharmaceuticals, Inc., priority 2006, dated 2013)",
  "key": {"[1]": {"tested_on": "human tumor cell lines, including prostate, endometrial, soft tissue and bone sarcoma, leukemia, lymphoma and glioblastoma cell lines", "experiment": "in vitro proliferation of human tumor cell lines", "type": "cell-based"}, "[2]": {"tested_on": "human tumor cell lines, including prostate, endometrial, soft tissue and bone sarcoma, leukemia, lymphoma and glioblastoma cell lines", "experiment": "in vivo xenograft models of human tumor cell lines"}, "[3]": {"experiment": "study of the degradation of AP23573", "type": "physicochemical"}},
  "data": [
    {"smiles": "CO[C@H]1C[C@@H]2CC[C@@H](C)[C@@](O)(O2)C(=O)C(=O)N2CCCC[C@H]2C(=O)O[C@H]([C@H](C)C[C@@H]2CC[C@@H](OP(C)(C)=O)[C@H](OC)C2)CC(=O)[C@H](C)/C=C(\\C)[C@@H](O)[C@@H](OC)C(=O)[C@H](C)C[C@H](C)/C=C/C=C/C=C/1C", "note": "[AP23573, 43-dimethylphosphinate ester of rapamycin]", "values": [
      {"measurement": "inhibition of proliferation of human tumor cell lines", "setting": "[1]", "result": "potently inhibited proliferation"},
      {"measurement": "inhibition of proliferation of human tumor cell lines", "setting": "[2]", "result": "potently inhibited proliferation"},
      {"measurement": "aqueous degradation", "setting": "[3]; aqueous, forms ring opened seco-AP23573", "result": "undergoes aqueous degradation via cleavage of a lactone bond"},
      {"measurement": "oxidative degradation pathway", "setting": "[3]; oxidation", "result": "oxidation of the compound's triene moiety"}
    ]}
  ]
}
